In patent US20240261417A1, “SOS1 DEGRADING AGENT AND PREPARATION METHOD THEREFOR AND APPLICATION THEREOF” (SHANGHAI LEADINGTAC PHARMACEUTICAL CO. LTD., priority 2021, published 2024):

Key:
Format in all cases: cell-based
[1] = tested on: KRAS G12D mutant human metastatic pancreatic adenocarcinoma cells AsPC-1; assay: 3D cell proliferation inhibition assay, AsPC-1; settings: Homo sapiens, ASPC1, 168 h, 7 days, CTG
Description: (§1) Inhibition of 3D cell proliferation by the compounds was investigated on KRAS G12C mutant human non-small cell lung cancer cells NCI-H358 (ATCC or Stem Cell Bank, Chinese Academy of Sciences), KRAS G12D mutant human metastatic pancreatic adenocarcinoma cells AsPC-1 (ATCC), KRAS G12V mutant human lung adenocarcinoma cells NCI-H441 (ATCC), and KRAS G13D mutant human colorectal adenocarcinoma epithelial cells DLD-1 (ATCC). The specific procedures were as follows:
(§2) 200 nL of compound solution diluted in a gradient was added to corresponding microwells of a 384-well low-adsorption microwell plate (Corning, 3657) using an Echo sonic pipetting system (Labcyte, Echo 550), so that the final concentration of the test compound in the reaction system was in a range of 20000 nM-0.008 nM. Then 40 μL of cells at a certain density were added to the corresponding microplate. In addition to test wells for the test compounds, both a DMSO control well and a medium control well were set, with the DMSO control well containing DMSO and cells and the medium well containing only medium. After sample loading, the plate cover was applied, and the 384-well low-adsorption microplate was incubated in an incubator at 37° C. with 5% carbon dioxide for 7 days. After 7 days, the microplate was taken out, and 40 μL of CTG reagent (Promega, G9683) was added to each well. The plate was incubated at room temperature for 30 min and read on a microplate reader EnVision using the chemiluminescence program. The inhibition rates of the compounds at each concentration were calculated by the formula for the percentage inhibition of cell proliferation: inhibition rate %=(mean value of DMSO control group−single concentration reading value of compound)/(mean value of DMSO control group−mean value of medium control group)×100, and then nonlinear curve fitting was performed by GraphPad Prism 8 in the logarithmic concentration-inhibition rate to obtain the IC50 values of the compounds.

[2] = tested on: KRAS G12V mutant human lung adenocarcinoma cells NCI-H441; assay: 3D cell proliferation inhibition assay, NCI-H441; settings: Homo sapiens, NCI-H441, 168 h, 7 days, CTG
Description: as §1, §2

[3] = tested on: KRAS G13D mutant human colorectal adenocarcinoma epithelial cells DLD-1; assay: 3D cell proliferation inhibition assay, DLD-1; settings: Homo sapiens, DLD-1, 168 h, 7 days, CTG
Description: as §1, §2

Row | SMILES | IC50 [1] [nM] | IC50 [2] [nM] | IC50 [3] [nM]
1 | COc1cc2nc(C)nc(N[C@H](C)c3cc(N)cc(C(F)(F)F)c3)c2cc1[C@H]1CC[C@H](C(=O)N2CCN(CCC3CCC4(CC3)CCN(C(=O)c3ccc(Cl)c(N5CCC(=O)NC5=O)c3)CC4)CC2)CC1 [Example 1, 1-(5-(9-(2-(4-((1R,4R)-4-(4-(((R)-1-(3-amino-5-(trifluoromethyl)phenyl)ethyl)amino)-7-methoxy-2-methylquinazolin-6-yl)cyclohexane-1-carbonyl)piperazin-1-yl)ethyl)-3-azaspiro[5.5]undecane-3-carbonyl)-2-chlorophenyl)dihydropyrimidine-2,4(1H,3H)-dione] | 15 to 30 | 30 to 50 | 30 to 50
2 | COc1cc2nc(C)nc(N[C@H](C)c3cc(N)cc(C(F)(F)F)c3)c2cc1[C@H]1CC[C@H](C(=O)N2CCN(CC3CCC4(CC3)CCN(C(=O)c3ccc(Cl)c(N5CCC(=O)NC5=O)c3)CC4)CC2)CC1 [Example 2, 1-(5-(9-((4-((1R,4R)-4-(4-(((R)-1-(3-amino-5-(trifluoromethyl)phenyl)ethyl)amino)-7-methoxy-2-methylquinazolin-6-yl)cyclohexane-1-carbonyl)piperazin-1-yl)methyl)-3-azaspiro[5.5]undecane-3-carbonyl)-2-chlorophenyl)dihydropyrimidine-2,4(1H,3H)-dione] | 100 to 1000 | 100 to 1000 | 15 to 30
3 | COc1cc2nc(C)nc(N[C@H](C)c3cccc4c3CCS4(=O)=O)c2cc1[C@H]1CC[C@H](C(=O)N2CCN(CC3CCC4(CC3)CCN(C(=O)c3ccc(Cl)c(N5CCC(=O)NC5=O)c3)CC4)CC2)CC1 [Example 10, 1-(2-chloro-5-(9-((4-((1R,4R)-4-(4-(((R)-1-(1,1-dioxo-2,3-dihydrobenzo[b]thiophen-4-yl)ethyl)amino)-7-methoxy-2-methylquinazolin-6-yl)cyclohexane-1-carbonyl)piperazin-1-yl)methyl)-3-azaspiro[5.5]undecane-3-carbonyl)phenyl)dihydropyrimidine-2,4(1H,3H)-dione] | 30 to 50 | ≤ 15 | 15 to 30
4 | COc1cc2nc(C)nc(N[C@H](C)c3cc(N)cc(C(F)(F)F)c3)c2cc1[C@H]1CC[C@H](C(=O)N2CCC(CCOCC3CCN(C(=O)c4ccc(Cl)c(N5CCC(=O)NC5=O)c4)CC3)CC2)CC1 [Example 19, 1-(5-(4-((2-(1-((1R,4R)-4-(4-(((R)-1-(3-amino-5-(trifluoromethyl)phenyl)ethyl)amino)-7-methoxy-2-methylquinazolin-6-yl)cyclohexane-1-carbonyl)piperidin-4-yl)ethoxy)methyl)piperidine-1-carbonyl)-2-chlorophenyl)dihydropyrimidine-2,4(1H,3H)-dione] | 100 to 1000 | 50 to 100 | 100 to 1000
5 | COc1cc2nc(C)nc(N[C@H](C)c3cc(N)cc(C(F)(F)F)c3)c2cc1[C@H]1CC[C@H](C(=O)N2CCN(CCOCC3CCN(C(=O)c4ccc(Cl)c(N5CCC(=O)NC5=O)c4)CC3)CC2)CC1 [Example 33, 1-(5-(4-((2-(4-((1R,4R)-4-(4-(((R)-1-(3-amino-5-(trifluoromethyl)phenyl)ethyl)amino)-7-methoxy-2-methylquinazolin-6-yl)cyclohexane-1-carbonyl)piperazin-1-yl)ethoxy)methyl)piperidine-1-carbonyl)-2-chlorophenyl)dihydropyrimidine-2,4(1H,3H)-dione] | 100 to 1000 | 100 to 1000 | 50 to 100
6 | CNCc1ccccc1-c1csc([C@@H](C)Nc2nc(C)nc3cc(OC)c([C@H]4CC[C@H](C(=O)N5CCN(CC6CCC7(CC6)CCN(C(=O)c6ccc(OC)c(N8CCC(=O)NC8=O)c6)CC7)CC5)CC4)cc23)c1 [Example 73, 1-(2-methoxy-5-(9-((4-((1R,4R)-4-(7-methoxy-2-methyl-4-(((R)-1-(4-(2-((methylamino)methyl)phenyl)thien-2-yl)ethyl)amino)quinazolin-6-yl)cyclohexane-1-carbonyl)piperazin-1-yl)methyl)-3-azaspiro[5.5]undecane-3-carbonyl)phenyl)dihydropyrimidine-2,4(1H,3H)-dione] | 100 to 1000 | 100 to 1000 | 50 to 100
